Source: ChEMBL document CHEMBL3137667, “[Drug-induced liver injury; fourteenth updated edition of the bibliographic database of liver injuries and related drugs]” (Gastroenterol Clin Biol, 2004)

Legend:
[1] = Proposed mechanism(s) of liver damage. [column 'MEC' in source]; conditions: human
[2] = human
[3] = human; remark: listed apart in the source
[4] = human; remark: listed apart in the source
[5] = human, serum, 4383 h
[6] = human; remark: listed apart in the source
[7] = Presence of at least one case with successful reintroduction. [column 'REINT' in source]; conditions: human
[8] = human, serum
[9] = human; remark: listed apart in the source
[10] = human, serum; remark: listed apart in the source
[11] = Highest frequency of moderate liver toxicity observed during clinical trials, expressed as a percentage. [column '% BIOL' in source]; conditions: human
[12] = Times to onset, minimal and maximal, observed in the indexed observations. [column 'DELAI' in source]; conditions: human
[13] = Highest frequency of acute liver toxicity observed during clinical trials, expressed as a percentage. [column '% AIGUE' in source]; conditions: human
[14] = human; remark: listed apart in the source
[15] = human; remark: listed apart in the source
[16] = human; remark: listed apart in the source
[17] = human; remark: listed apart in the source
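For Hepatotoxicity (association with vascular disease) in this document: count of indexed literature references reporting vascular liver injury in humans, e.g. peliosis hepatitis, hepatic veno-occlusive disease or Budd-Chiari syndrome.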
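For Hepatotoxicity (benign tumour) in this document: value is a count of indexed literature references citing a benign tumour confirmed by histopathology.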
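For Hepatotoxicity (choleostasis) in this document: human cholestatic liver injury, shown by histopathology or by peak ALT or AST elevation over alkaline phosphatase ratio below 2, value counts indexed literature reports.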
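For Hepatotoxicity (chronic liver disease) in this document: chronic liver injury confirmed by histopathology or persistently raised serum aminotransferase activity beyond 6 months, value given as the count of indexed literature references.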
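For Hepatotoxicity (cirrhosis) in this document: value is a count of indexed literature references reporting cirrhosis confirmed by histopathology.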
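For Hepatotoxicity (cytolytic) in this document: human cytolytic liver injury, shown by histopathology or by a ratio above 5 of peak ALT or AST elevation to alkaline phosphatase elevation, value counts indexed references.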
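For Hepatotoxicity (granulomatous hepatitis) in this document: value is a count of indexed literature references reporting granulomatous liver disease confirmed by histopathology.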
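For Hepatotoxicity (malignant tumour) in this document: malignant tumour confirmed by histopathology, value gives the count of indexed literature references reporting it.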
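For Hepatotoxicity (severe hepatitis) in this document: human clinical data: severe hepatitis, meaning potentially life-threatening liver failure or clinically observed cases, the value counts how many indexed literature references report it.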
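For Hepatotoxicity (steatosis) in this document: steatosis confirmed by histopathology, value is the count of indexed references.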

| Structure (SMILES) | Hepatotoxicity (mechanism) [1] | Hepatotoxicity (malignant tumour) [2] | Hepatotoxicity (steatosis) [3] | Hepatotoxicity (granulomatous hepatitis) [4] | Hepatotoxicity (chronic liver disease) [5] | Hepatotoxicity (association with vascular disease) [6] | Hepatotoxicity (successful reintroduction) [7] | Hepatotoxicity (acute) [8] | Hepatotoxicity (severe hepatitis) [9] | Hepatotoxicity (moderate) [10] | Hepatotoxicity (moderate) [11] [%] | Hepatotoxicity (time to onset) [12] | Hepatotoxicity (acute) [13] [%] | Hepatotoxicity (choleostasis) [14] | Hepatotoxicity (cirrhosis) [15] | Hepatotoxicity (cytolytic) [16] | Hepatotoxicity (benign tumour) [17] | further results |
| --- | --- | --- | --- | --- | --- | --- | --- | --- | --- | --- | --- | --- | --- | --- | --- | --- | --- | --- |
| CC(C)N(CCC(C(N)=O)(c1ccccc1)c1ccccn1)C(C)C (stereo not drawn) [DISOPYRAMIDE] | Allergic | 0 | 0 | 0 | 1 | 0 | yes | 14 | 0 | 1 | 0.3 | 2 weeks - 1 year | 0.1 | 10 | 0 | 6 | 0 |  |
| CCCC(C)C1(CC)C(=O)NC(=S)NC1=O (stereo not drawn) [THIOPENTAL] | Dose-dependant | 0 | 1 | 0 | 0 | 0 | yes | 2 | 0 | 4 | 87 | 1 day - 5 days | 0 | 0 | 0 | 1 | 0 |  |
| CCc1cc(C(N)=S)ccn1 [ETHIONAMIDE] |  | 0 | 0 |  | 0 | 0 | yes | 15 |  | 11 |  | 1 month - 2 years |  |  | 0 |  | 0 | Hepatotoxicity (mechanism) ([1]; Liver): Allergic; Hepatotoxicity (granulomatous hepatitis) ([4]; Liver): 0; Hepatotoxicity (severe hepatitis) ([9]; Liver): 2; Hepatotoxicity (moderate) ([11]; Liver): 37%; Hepatotoxicity (acute) ([13]; Liver): 5.4%; Hepatotoxicity (choleostasis) ([14]; Liver): 6; Hepatotoxicity (cytolytic) ([16]; Liver): 7 |
| NC(=O)c1cccnc1 [NIACINAMIDE] | Dose-dependant | 0 | 0 | 0 | 0 | 0 | yes | 2 | 0 | 1 | 6.3 | < 2 months - 3 months | 0 | 0 | 0 | 1 | 0 |  |
